Laboratory results as given in patent publication US11819512B2, “Solid forms of a CD73 inhibitor and the use thereof” (ARCUS BIOSCIENCES, INC., priority 2018, dated 2023).

Key:
[1] = Stability of crystalline material on storage (HPLC and XRPD); assay type: physicochemical; details: for purity by HPLC after storage: decrease from 99%
[2] = Hygroscopicity by dynamic vapor sorption (DVS); assay type: physicochemical; details: 25° C.
Experimental: A quantity of the crystalline material was analyzed by dynamic vapor sorption (DVS). The sample was subjected to a ramping profile from 40-90% RH at 10% increments, maintaining the sample at each step until a stable weight had been achieved at 25° C. After completion of the sorption cycle, the sample was dried using the same procedure to 0% RH followed by a second sorption cycle back to 40% RH. Two cycles were performed overall. The weight change during the sorption/desorption cycles were plotted, allowing for the hygroscopic nature of the sample to be determined. Significant hysteresis was observed, with the material retaining much larger quantities of water during the second sorption cycle as shown in FIG. 10. […] The amount of water in the sample at 90% relative humidity corresponds to the pentahydrate of the material.

[3] = 40° C. at 75% relative humidity (RH) for one week

crystallinity after storage ([1]; 25° C. at 60% relative humidity (RH) for one week): no change in crystallinity
solid form by XRPD after storage [1, 3]: conversion to the amorphous material
purity by HPLC after storage [1, 3]: 97.3%
morphology by XRPD after storage ([1]; 80° C. for one week): no change in morphology
purity by HPLC after storage ([1]; 80° C. for one week): 97.4%
hygroscopic nature ([2]; DVS): hygroscopic
increase of water (weight) by DVS ([2]; at 90% relative humidity relative to 0% relative humidity): 13.2 % wt.
SMILES: C[C@H](Nc1cc(Cl)nc2c1cnn2[C@@H]1O[C@H](COP(=O)(O)CP(=O)(O)O)[C@@H](O)[C@H]1O)c1ccccc1F [crystalline material, [({[(2R,3S,4R,5R)-5-(6-chloro-4-{[(1S)-1-(2-fluorophenyl)ethyl]amino}-1H-pyrazolo[3,4-b]pyridin-1-yl)-3,4-dihydroxyoxolan-2-yl]methoxy}(hydroxy)phosphoryl)methyl]phosphonic Acid]
XRPD of the sample post-DVS ([2]; after two sorption/desorption cycles, 0-90% RH): loss of crystallinity and regeneration of amorphous material
